Patent US10336762B2 (priority 2017, dated 2019)

How the values were obtained:
IRAK4 enzyme = IRAK4 enzyme (Homo sapiens (Human), UniProt Q9NWZ3); test: biochemical; type: biochemical; details: IRAK4 enzyme, 500 μM ATP
TNFα = test: cells; type: cell-based, human; details: Homo sapiens, Monocyte, LPS-stimulated human monocytes, TNFα content; read-out: EC50 TNF

Sequence of IRAK4 enzyme (Q9NWZ3 whole entry): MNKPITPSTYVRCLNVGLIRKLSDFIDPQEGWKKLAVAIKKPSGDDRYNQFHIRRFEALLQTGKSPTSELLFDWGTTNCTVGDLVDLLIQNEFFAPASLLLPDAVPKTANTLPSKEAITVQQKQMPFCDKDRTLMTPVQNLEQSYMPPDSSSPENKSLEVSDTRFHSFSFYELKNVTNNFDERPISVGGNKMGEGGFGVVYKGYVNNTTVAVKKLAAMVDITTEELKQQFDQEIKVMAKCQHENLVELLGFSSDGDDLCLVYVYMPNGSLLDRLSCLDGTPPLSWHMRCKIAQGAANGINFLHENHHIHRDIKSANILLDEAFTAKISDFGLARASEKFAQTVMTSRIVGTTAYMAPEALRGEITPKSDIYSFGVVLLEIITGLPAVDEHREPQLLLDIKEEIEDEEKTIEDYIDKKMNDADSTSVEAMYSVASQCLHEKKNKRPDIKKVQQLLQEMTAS

**Q.** With `COC(=O)NC(C)(C)CCNc1cc(-c2ccc3cc(C#N)cnn23)ncc1C(=O)NC[C@@H](F)C(C)(C)O` [Example 727, (R)-methyl (4-((2-(3-cyanopyrrolo[1,2-b]pyridazin-7-yl)-5-((2-fluoro-3-hydroxy-3-methylbutyl)carbamoyl)pyridin-4-yl)amino)-2-methylbutan-2-yl)carbamate] as the compound, how does the IC50 (IRAK4 enzyme; TR-FRET (HTRF)) read?
**A.** The IC50 was 3 nM.

**Q.** And the EC50 (TNFα)?
**A.** Its EC50 is 203 nM.

**Q.** Which results are given for `CC(C)(O)[C@H](F)CNC(=O)c1cnc(-c2ccc3cc(C#N)cnn23)cc1N[C@H]1CC[C@H](O)C1` [Example 522, 6-(3-cyanopyrrolo[1,2-b]pyridazin-7-yl)-N-((R)-2-fluoro-3-hydroxy-3-methylbutyl)-4-(((1S,3S)-3-hydroxycyclopentyl)amino) nicotinamide]?
**A.** IC50 (IRAK4 enzyme; TR-FRET (HTRF)): < 1 nM; EC50 (TNFα): 23 nM

**Q.** Which results are given for `CC(C)(O)[C@H](F)CNC(=O)c1cnc(-c2ccc3cc(C#N)cnn23)cc1N[C@H]1CC[C@H](N2CCOC2=O)CC1` [Example 392, 6-(3-cyanopyrrolo[1,2-b]pyridazin-7-yl)-N-((R)-2-fluoro-3-hydroxy-3-methylbutyl)-4-(((1r,4R)-4-(2-oxooxazolidin-3-yl)cyclohexyl)amino) nicotinamide]?
**A.** IC50 (IRAK4 enzyme; TR-FRET): < 1 nM; EC50 (TNFα): 50 nM

**Q.** What does the source list for `CC(C)(O)[C@H](F)CNC(=O)c1cnc(-c2ccc3cc(C#N)cnn23)cc1N[C@@]12CC[C@@H](C1)[C@@H](O)C2` [Example 504, 6-(3-cyanopyrrolo[1,2-b]pyridazin-7-yl)-N-((R)-2-fluoro-3-hydroxy-3-methylbutyl)-4-(((1S,3S,4S)-3-hydroxybicyclo[2.2.1]heptan-1-yl)amino) nicotinamide]?
**A.** IC50 (IRAK4 enzyme; TR-FRET (HTRF)): < 1 nM; EC50 (TNFα): 14 nM

**Q.** Which IC50 (IRAK4 enzyme; TR-FRET (HTRF)) does the source give for `CN1CCN(C(=O)CNC(=O)c2cnc(-c3ccc4cc(C#N)cnn34)cc2NC23CCC(O)(CC2)CC3)CC1` [Example 789, 6-(3-cyanopyrrolo[1,2-b]pyridazin-7-yl)-4-((4-hydroxybicyclo[2.2.2]octan-1-yl)amino)-N-(2-(4-methylpiperazin-1-yl)-2-oxoethyl)nicotinamide] here?
**A.** Its IC50 is less than 1 nM.

**Q.** What about the EC50 (TNFα) of the same compound?
**A.** The EC50 was 20 nM.

**Q.** Which results are given for `CC(C)(O)[C@H](F)CNC(=O)c1cnc(-c2ccc3cc(C#N)cnn23)cc1NC1CCC(S(C)(=O)=O)CC1` (stereo partly drawn) [Example 523, (R)-6-(3-cyanopyrrolo[1,2-b]pyridazin-7-yl)-N-(2-fluoro-3-hydroxy-3-methylbutyl)-4-((4-(methylsulfonyl)cyclohexyl)amino)nicotinamide]?
**A.** IC50 (IRAK4 enzyme; TR-FRET (HTRF)): 14 nM; EC50 (TNFα): 412 nM

**Q.** What does the source list for `CC(C)(O)[C@H](F)CNC(=O)c1cnc(-c2ccc3cc(C#N)cnn23)cc1NC12CCC(C(=O)N3CCOCC3)(CC1)CC2` [Example 401, (R)-6-(3-cyanopyrrolo[1,2-b]pyridazin-7-yl)-N-(2-fluoro-3-hydroxy-3-methylbutyl)-4-((4-(morpholine-4-carbonyl)bicyclo[2.2.2]octan-1-yl)amino)nicotinamide]?
**A.** IC50 (IRAK4 enzyme; TR-FRET (HTRF)): 2 nM; EC50 (TNFα): 65 nM

**Q.** With `CC(C)(O)[C@H](F)CNC(=O)c1cnc(-c2ccc3cc(C#N)cnn23)cc1N[C@H]1C[C@H]2CNC[C@H]2C1` [Example 248, 6-(3-cyanopyrrolo[1,2-b]pyridazin-7-yl)-N-((R)-2-fluoro-3-hydroxy-3-methyl-butyl)-4-(((3aR,5r,6aS)-octahydrocyclopenta[c]pyrrol-5-yl)amino) nicotinamide] as the compound, how does the IC50 (IRAK4 enzyme; TR-FRET) read?
**A.** Its IC50 is 3 nM.

**Q.** And the EC50 (TNFα)?
**A.** The EC50 was 545 nM.

**Q.** Which results are given for `CC(C)(O)[C@H](F)CNC(=O)c1cnc(-c2ccc3cc(C#N)cnn23)cc1N[C@H]1CCC[C@@H](O)C1` [Example 2, 6-(3-cyanopyrrolo[1,2-b]pyridazin-7-yl)-N-((R)-2-fluoro-3-hydroxy-3-methylbutyl)-4-(((1S,3R)-3-hydroxycyclohexyl)amino)nicotinamide]?
**A.** IC50 (IRAK4 enzyme; TR-FRET): < 1 nM; EC50 (TNFα): 9 nM

**Q.** `CC(C)(O)[C@H](F)CNC(=O)c1cnc(-c2ccc3cc(C#N)cnn23)cc1NC1C2CNCC1C2` (single isomer, unassigned) [Example 25] was tested. Which IC50 (IRAK4 enzyme; TR-FRET) did it give?
**A.** The IC50 was 2 nM.

**Q.** And the EC50 (TNFα)?
**A.** Its EC50 is 116 nM.
